Source: ChEMBL document CHEMBL1156829 (Proc Natl Acad Sci U S A, 2008)

How the values were obtained:
[1] = test system: Plasmodium falciparum; assay: NOVARTIS: Inhibition of Plasmodium falciparum 3D7 (drug-susceptible) proliferation in erythrocyte-based infection assay; assay type: functional, organism-based; conditions: Plasmodium falciparum, 3D7
[2] = test system: Plasmodium falciparum; assay: NOVARTIS: Inhibition of Plasmodium falciparum W2 (drug-resistant) proliferation in erythrocyte-based infection assay; assay type: functional, organism-based; conditions: Plasmodium falciparum, W2; read-out: EC50
[3] = NOVARTIS: Cytotoxicity against human hepatocellular carcinoma cell line (Huh7); assay type: toxicity, cell-based, Huh-7; conditions: Huh7 cells (hepatocellular carcinoma cell line)

SMILES	EC50 [1] [µM]	EC50 [2] [µM]	CC50 [3] [µM]
Cc1ccc(-c2nn(CC(=O)Nc3ccc(OC(F)(F)F)cc3)c(=O)c3ccccc23)cc1S(=O)(=O)N1CCCCC1	> 1.25	1.92	> 10
CCCN1CCC(N2C[C@@H](NCc3ccc(OCc4ccccc4)cc3)C[C@H]2C(=O)NCCc2ccc3c(c2)OCO3)CC1	1.07	0.701	3.56
O=C(NCCCN1CCCC1=O)c1ccc2nc(N3CCOCC3)sc2c1	7.24	4.69	26.8
CCCOc1ccc(C(=O)Nc2cccc(-c3nc4ncccc4o3)c2)cc1	0.415	> 1.75	> 10
COc1cc(C(=O)Nc2ccc3nc4n(c(=O)c3c2)CCCCC4)cc(OC)c1OC	> 0.589	1.88	> 10
CC1(C)Oc2ccc(C(=O)N3CCCC3)cc2N(CCc2ccccc2)C1=O	> 1.12	1.87	> 10
Cc1cccc(Nc2nc3nonc3[nH]c2=NN=Cc2cccs2)c1C	8.65	4.3	23.3
CC1=C(C(=O)OC(C)C)C(c2ccccc2F)C2=C(CC(C)(C)CC2=O)N1 (configuration not stated)	> 1.25	1.91	> 10
COC(=O)c1c(S(=O)(=O)NCCc2ccccc2)sc2c1CCN(Cc1cccnc1)C2	1.57	1.91	> 10
O=C(Nc1ccc2c(c1)OCO2)c1cc2cc(C3(O)CCN(CCCc4ccccc4)CC3)ccc2o1	0.912	1.18	6.32
COc1ccc(CCN(Cc2ccc(Cl)cc2)S(=O)(=O)c2ccc(S(N)(=O)=O)cc2)cc1OC	4.72	> 12.5	67.3
c1ccc2[nH]c(CN(Cc3nc4ccccc4[nH]3)Cc3nc4ccccc4[nH]3)nc2c1	0.191	5.26	26.7
COc1cccc(CNC(=O)Cn2ncc3c(=O)oc4ccc(C)cc4c32)c1	> 1.73	1.76	> 10
CCOC(=O)C1=C(C)NC2=C(C(=O)CCC2)C1c1cc(Br)c(O)c(OCC)c1 (configuration not stated)	> 0.51	> 1.76	> 10
O=C(NC(C(=O)c1ccccc1)N1CCCCC1)c1ccco1 (configuration not stated)	> 0.831	> 1.76	> 10
Cc1ccccc1NC(=O)N(CCCNC(=O)CCl)c1ccccc1	> 0.442	1.77	> 10
O=C(c1ccncc1)N1N=C(c2c(-c3ccccc3)c3cc(Br)ccc3[nH]c2=O)CC1c1ccccc1 (configuration not stated)	0.144	1.54	8.7
O=[N+]([O-])c1ccc2nc(NC3CCCCC3)c(NC3CCCCC3)nc2c1	2.49	2.65	14.7
O=C(COC(=O)c1ccccc1O)c1ccc(Br)cc1	1.54	1.82	> 10
Cc1ccc(-n2c(=S)sc3c(=O)n(-c4ccccc4)c(SCC(=O)c4ccccc4)nc32)cc1C	> 1.25	1.79	> 10
COc1cccc(C2(NC(=O)CCn3ccnc3-c3ccccc3)CCCC2)c1	> 1.25	1.78	> 10
CCc1ccc(CSc2nc3cc(OC)c(OC)cc3c(=N)n2CCc2ccccc2)cc1	6.64	7.62	38.9
Cn1c(SCC2CCCO2)nnc1C1CCN(C/C=C/c2ccccc2)CC1 (configuration not stated)	> 1.28	> 0.758	> 3.89
Clc1ccc(Nc2nc3nonc3nc2Nc2ccc(Cl)c(Cl)c2)cc1Cl	> 12.5	9.28	48.7
COc1cccc(OC)c1C(=O)Nc1cc(C(F)(F)F)ccc1Cl	> 1.25	1.81	> 10

SMILES	EC50 [1] [µM]	EC50 [2] [µM]	CC50 [3] [µM]
CCCCC(CC)C(=O)N1CCN(C(C)c2nc3ccc(Cl)cc3c(=O)n2C)CC1 (configuration not stated)	> 1.49	1.81	> 10
Cc1cc(NC(=O)/C=C/c2ccccc2Cl)ccc1Br	1.35	1.81	> 10
O=C(NC1CC1)c1ccc(N2C(=O)C3C4c5ccccc5C(c5ccccc54)C3C2=O)cc1 (configuration not stated)	> 0.872	1.9	> 10
O=C(Nc1ccc(C(F)(F)F)cc1)c1cc(S(=O)(=O)NC2CCCCCC2)ccc1F	4	3.33	17.7
Cc1ccc2[nH]c(/C(C#N)=C/c3cn(Cc4ccc(Cl)cc4Cl)nc3-c3ccccc3)nc2c1	> 1.01	1.88	> 10
CCOc1ccc(CN(CCC(c2ccccc2)c2ccccc2)C(=O)Nc2ccccc2C)cc1	> 1.35	1.85	> 10
CC(C)(c1ccc(Oc2ccc(NC(=O)c3ccccc3)cc2)cc1)c1cccc(Oc2ccc(NC(=O)c3ccccc3)cc2)c1	1.56	1.77	> 10
CC(C)(C)c1ccc(NC(=O)CN2CCCCC2)cc1	> 12.5	> 8.77	49.7
COC(=O)c1ccccc1NC(=O)COc1cccc(OC)c1	> 1.41	1.86	> 10
O=C(Nc1ccc(-c2nc3ccc(NC(=O)c4cccc5ccccc45)cc3[nH]2)cc1)c1cccc2ccccc12	1.43	1.92	> 10
COC(=O)COc1ccc(/C=C2\SC(=Nc3ccc(F)cc3)NC2=O)cc1	> 0.757	1.79	> 10
Cc1cc(Nc2ccc(Cl)cc2)n2nnnc2n1	> 1.64	1.75	> 10
COc1ccc([C@@H]2Nc3ccc(C(C)=O)cc3[C@@H]3C=CC[C@@H]32)cc1[N+](=O)[O-]	> 1.25	1.76	> 10
c1ccc(C2=NN(c3ccccc3)C(c3ccc4c(c3)OCO4)N2c2ccc(N3CCOCC3)cc2)cc1 (configuration not stated)	0.68	1.78	> 10
COc1ccccc1CN1CCc2nc(-c3cnccn3)sc2C1	9.23	4.44	23
O=[N+]([O-])c1ccc(-n2cccc2C=NNc2ncnc3sc4c(c23)CCCC4)cc1	2.78	1.41	7.45
CCCNC(=O)N1CCC2(CC1)CC(=O)c1ccccc1O2	> 1.25	1.77	> 10
CCOC(=O)NC(=O)N1CCC(c2nc(-c3cc(C(C)(C)C)c(O)c(C(C)(C)C)c3)cs2)CC1	1.66	1.88	> 10
COc1ccc(CCNc2nc(NCCCn3ccnc3)ncc2C(=O)NCC(C)C)cc1OC	0.563	> 1.25	> 6.78
COc1ccc(OC)c(-c2csc(N(CCCN(C)C)C(=O)Cc3ccccc3)n2)c1	4.05	3.43	17.7
Cc1cc(NC(=O)c2ccc(Br)cc2)no1	> 1.25	1.91	> 10
c1ccc(CSc2scnc2[P+](c2ccccc2)(c2ccccc2)c2ccccc2)cc1	0.335	0.563	3.19
CC1=C(C(=O)OCCOc2ccccc2)C(c2cccc([N+](=O)[O-])c2)C2=C(CCCC2=O)N1 (configuration not stated)	> 1.25	1.81	> 10
CCOc1ccc(N2C(=O)NC(=O)/C(=C\c3cn(C(C)=O)c4ccccc34)C2=O)cc1	> 1.25	1.86	> 10
